According to article PMC5966831 (Biochemistry, 2013):
Where two headings read alike, the source gives them in different places.

B1: E. coli RBP: Escherichia coli ribose binding protein (protein, UniProt P02925 26-296, looked up)
Ribose import binding protein …: KDTIALVVSTLNNPFFVSLKDGAQKEADKLGYNLVVLDSQNNPAKELANVQDLTVRGTKILLINPTDSDAVGNAVKMANQANIPVITLDRQATKGEVVSHIASDNVLGGKIAGDYIAKKAGEGAKVIELQGIAGTSAARERGEGFQQAVAAHKFNVLASQPADFDRIKGLNVMQNLLTAHPDVQAVFAQNDEMALGALRALQTAGKSDVMVVGFDGTPDGEKAVNDGKLAATIAQLPDQIGAKGVETADKVLKGEKVQAKYPVDLKLVVKQ

Columns and labels:
[1] = target: N′60 (Caldanaerobacter subterraneus, UniProt Q8RD41, C137S/L167D); assay type: binding; conditions: SD, n = 3
[2] = target: N′70 (Caldanaerobacter subterraneus, UniProt Q8RD41, C137S/L167D); assay type: binding; conditions: SD, n = 3
[3] = target: N′186 (Caldanaerobacter subterraneus, UniProt Q8RD41, C137S/L167D); assay type: binding; conditions: SD, n = 3
[4] = target: N′210 (Caldanaerobacter subterraneus, UniProt Q8RD41, C137S/L167D); assay type: binding; conditions: SD, n = 3
[5] = target: T1, AFF70 (Caldanaerobacter subterraneus, UniProt Q8RD41, C137S/F53A/F54A/INS105C/L167D); assay type: binding; conditions: SD, n = 3
[6] = target: T2, AFF186 (Caldanaerobacter subterraneus, UniProt Q8RD41, C137S/D254S/INS221C/L167D); assay type: binding; conditions: SD, n = 3
[7] = target: T3, AFF210 (Caldanaerobacter subterraneus, UniProt Q8RD41, C137S/D254S/INS245C/L167D); assay type: binding; conditions: SD, n = 3
[8] = target: T1, AFF70; assay: Equilibrium fluorescence; assay type: binding
[9] = target: T2, AFF186; assay: Equilibrium fluorescence; assay type: binding
[10] = target: T3, AFF210; assay: Equilibrium fluorescence; assay type: binding
[11] = Thermal denaturation monitored by circular dichroism; assay type: physicochemical; conditions: E. coli RBP and its permutants, apo forms, Figure S7

Molecule | Kd [1] [nM] | Kd [2] [nM] | Kd [3] [nM] | Kd [4] [nM] | Kd [5] [nM] | Kd [6] [nM] | Kd [7] [nM] | Kd [8] [nM] | Kd [9] [nM] | Kd [10] [nM] | Tm [11] [°C]
OC1OC[C@@H](O)[C@@H](O)[C@H]1O (stereo partly drawn) [ribose, D-ribose] | 21.3 ± 1.1 | 2740 ± 240 | 38.1 ± 0.4 | 21.6 ± 1.4 | 46.6 ± 5.5 | 58.8 ± 0.17 | 26.1 ± 1.5 | 4200 | 12300 | 4200 | –
B1 | – | – | – | – | – | – | – | – | – | – | 55
